Drawing on US5990158A, “Carboxylic acid derivatives, method of manufacturing the same and therapeutic agents containing these compounds” (Kotobuki Seiyaku Co., Ltd., priority 1996, dated 1999), this text covers IC50 for 22 compounds.

One test has as its target T1, MMP-2 (gelatinase A) (Homo sapiens, UniProt P08253).
T1 construct: made in house; host or cells: COS-1 cells transfected with human pro-MMP-2 cDNA (secreted into culture medium)
T1 sequence (P08253 110-660): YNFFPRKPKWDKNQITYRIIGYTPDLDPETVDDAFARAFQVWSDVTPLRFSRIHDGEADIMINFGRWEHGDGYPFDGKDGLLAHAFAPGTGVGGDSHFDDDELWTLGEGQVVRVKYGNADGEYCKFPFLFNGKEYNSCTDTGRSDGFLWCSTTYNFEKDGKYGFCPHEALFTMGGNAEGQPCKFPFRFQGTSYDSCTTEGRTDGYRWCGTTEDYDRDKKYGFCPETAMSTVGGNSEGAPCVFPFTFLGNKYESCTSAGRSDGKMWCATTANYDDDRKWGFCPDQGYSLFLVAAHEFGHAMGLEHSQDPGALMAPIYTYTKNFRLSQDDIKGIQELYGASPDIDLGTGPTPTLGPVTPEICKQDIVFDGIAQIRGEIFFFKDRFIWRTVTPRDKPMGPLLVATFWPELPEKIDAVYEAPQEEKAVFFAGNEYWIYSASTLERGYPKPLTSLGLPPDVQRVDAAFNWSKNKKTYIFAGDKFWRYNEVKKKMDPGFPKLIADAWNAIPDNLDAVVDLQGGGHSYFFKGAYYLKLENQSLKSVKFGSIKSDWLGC
The test can be described thus: MMP-2 (gelatinase A) inhibitory activity, FITC-labeled type IV collagen degradation. Format: biochemical. The note with it: 50% inhibition of collagen type IV degradation; activated pro MMP-2 from transfected COS-1 cells; 42° C., 4 h. The procedure: (§1) Experiment 2: MMP-2 (gelatinase A) and MMP-9 (gelatinase B) inhibitory activities.
(§2) Pro MMP-2 was obtained from culture medium separated from human pro-MMP-2 cDNA tranfected COS-1 cells. It was activated by 1 mM (p-aminophenyl)mercury acetic acid, and MMP-9, derived human fibrosarcome,was purchased from Yagai Co. Ltd. Inhibition of both enzyme activities were estimated by enzyme assay using type IV collagenase activity assay kit (Yagai Co. Ltd., Biswaz, C. et al., J. Cell.Biochem., 28, 39 (1984)). MMP-2 or MMP-9 (0.01 U/ml), test compound (several concentrations), and FITC-labeled type IV collagen (derived bovine placenta, 25 μg) were incubated in 100 μl of 0.05M Tris - HCl buffer (pH 7.5) containing 200 mM NaCl and 5 mM CaCl2 at 42° C. for 4 h. Inhibitory activity of compound was evaluated by same as that of MMP-1 assay. Unchanged type IV collagen was precipitated by centrifugation, and the degradation percent of substrate was calculated by comparison with a fluorescence intensity of heat denatured substrate as 100%. Inhibition of enzyme activity was expressed as an IC50 value which was the concentration of test compound necessary to produce 50% inhibition of collagen type IV degradation by enzyme.

For the next test, the target named is T2, MMP-9 (gelatinase B) (Homo sapiens, UniProt P14780).
T2 construct: purchased Yagai Co. Ltd; host or cells: human fibrosarcoma
T2 sequence (P14780 94-707): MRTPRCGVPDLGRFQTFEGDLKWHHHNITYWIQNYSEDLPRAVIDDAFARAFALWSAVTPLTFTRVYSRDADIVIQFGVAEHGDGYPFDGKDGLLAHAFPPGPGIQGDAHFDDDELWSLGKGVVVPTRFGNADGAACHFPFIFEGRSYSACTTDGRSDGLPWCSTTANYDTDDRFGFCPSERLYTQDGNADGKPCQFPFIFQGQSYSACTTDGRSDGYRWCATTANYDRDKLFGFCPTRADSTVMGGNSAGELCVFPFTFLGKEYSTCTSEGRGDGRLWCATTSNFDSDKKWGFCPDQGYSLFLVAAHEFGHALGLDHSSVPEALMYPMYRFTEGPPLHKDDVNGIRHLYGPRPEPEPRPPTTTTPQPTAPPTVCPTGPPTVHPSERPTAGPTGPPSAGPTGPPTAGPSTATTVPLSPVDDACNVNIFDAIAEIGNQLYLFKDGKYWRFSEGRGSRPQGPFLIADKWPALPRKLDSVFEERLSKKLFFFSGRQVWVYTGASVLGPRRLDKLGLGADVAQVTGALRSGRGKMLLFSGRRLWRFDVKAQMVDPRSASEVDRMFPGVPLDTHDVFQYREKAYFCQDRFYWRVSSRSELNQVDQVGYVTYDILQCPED
The test can be described thus: MMP-9 (gelatinase B) inhibitory activity, FITC-labeled type IV collagen degradation. Format: biochemical. The note with it: 50% inhibition of collagen type IV degradation; MMP-9 derived from human fibrosarcoma; 42° C., 4 h. The protocol: as §1, §2

Usually IC50 stands for the concentration at which inhibition is half-maximal. A low value points to higher potency. With `CCOc1ccc(OCCC[C@H](CC(=O)NO)C(=O)N[C@@H](Cc2ccccc2)C(=O)NC)cc1` [Compound 43, N-[(2R)-2-(2'-Hydroxyamino-2'-oxo-ethyl)-5-[(4-ethoxy-phenyl)oxy]pentanoyl]-L-phenylalanine N-Methylamide], the results for the IC50 at MMP-2 (gelatinase A) and against MMP-9 (gelatinase B) were 0.97 nM and 0.14 nM, respectively.
Consider `CNC(=O)[C@H](Cc1ccccc1)NC(=O)[C@H](CCCCOc1ccc(OC)cc1)CC(=O)NO` [Compound 44, N-[(2R)-2-(2'-Hydroxyamino-2'-oxo-ethyl)-6-[(4-methoxyphenyl)oxy]hexanoyl]-L-phenylalanine N-Methylamide], for which the figures for the concentration for half-maximal inhibition (IC50) on MMP-2 (gelatinase A) and against MMP-9 (gelatinase B) were 1.3 nM and 0.41 nM, respectively.
For `CCOc1ccc(OCCCC[C@H](CC(=O)NO)C(=O)N[C@@H](Cc2ccccc2)C(=O)NC)cc1` [Compound 45, N-[(2R)-2-(2'-Hydroxyamino-2'-oxo-ethyl)-6-[(4-ethoxy-phenyl)oxy]hexanoyl]-L-phenylalanine N-Methylamide], the IC50 on MMP-2 (gelatinase A) came to 4 nM; against MMP-9 (gelatinase B) it was 0.72 nM.
For `C=CCOc1ccc(OCCCC[C@H](CC(=O)NO)C(=O)N[C@@H](Cc2ccccc2)C(=O)NC)cc1` [Compound 46, N-[(2R)-2-(2'-Hydroxyamino-2'-oxo-ethyl)-6-[(4-allyloxy-phenyl)oxy]hexanoyl]-L-phenylalanine N-Methylamide] the same measures were 250 nM and 160 nM.
The matching figures for `CNC(=O)[C@H](Cc1ccc(OC)cc1)NC(=O)[C@H](CCOc1ccc(OC)cc1)CC(=O)NO` [Compound 47, (2S)-2-[(2R)-2-(2'-Hydroxyamino-2'-oxo-ethyl)-4-[(4-methoxyphenyl)oxy]-butyloyl]amino-3-(4-methoxy)phenylpropanoylmethylamide]: 11 nM and 1.2 nM.
The matching figures for `CNC(=O)[C@H](Cc1ccc(OC)cc1)NC(=O)[C@H](CCCOc1ccc(OC)cc1)CC(=O)NO` [Compound 48, (2S)-2-[(2R)-2-(2'-Hydroxyamino-2'-oxo-ethyl)-5-[(4-methoxyphenyl)oxy]-pentanoyl]amino-3-(4-methoxy)phenyl-propanoylmethylamide]: 9 nM and 0.15 nM.
For the compound `COc1ccc(C[C@H](NC(=O)[C@H](CCCOc2ccc(OC)cc2)CC(=O)NO)C(=O)NC(C)(C)C)cc1` [Compound 49, (2S)-2-[(2R)-2-(2'-Hydroxyamino-2'-oxo-ethyl)-5-[(4-methoxyphenyl)oxy]-pentanoyl]amino-3-(4-methoxy)phenyl-propanoyl-tert-butylamide], the values for the IC50 on MMP-2 (gelatinase A) and at MMP-9 (gelatinase B) were 26 nM and 0.42 nM, respectively.
As for `COc1ccc(C[C@H](NC(=O)[C@H](CCCOc2ccc(OC)cc2)CC(=O)NO)C(=O)NCCS(N)(=O)=O)cc1` [Compound 50, 2-[(2S)-2-[(2R)-2-(2'-Hydroxyamino-2'-oxo-ethyl)-5-[(4-methoxyphenyl)oxy]-pentanoyl]amino-3-(4-methoxy)phenylpropanoyl]amino-ethanesulfonamide], the IC50 was 0.45 nM against MMP-2 (gelatinase A) and 0.052 nM against MMP-9 (gelatinase B).
For `CNC(=O)[C@H](Cc1ccc(OC)cc1)NC(=O)[C@H](CCCCOc1ccc(OC)cc1)CC(=O)NO` [Compound 51, (2S)-2-[(2R)-2-(2'-Hydroxyamino-2'-oxo-ethyl)-6-[(4-methoxyphenyl)oxy]-hexanoyl]amino-3-(4-methoxy)phenylpropanoylmethylamide] the same measures were 2.5 nM and 0.28 nM.
The matching figures for `CCOc1ccc(C[C@H](NC(=O)[C@H](CCCOc2ccc(OC)cc2)CC(=O)NO)C(=O)NC)cc1` [Compound 52, (2S)-2-[(2R)-2-(2'-Hydroxyamino-2'-oxo-ethyl)-5-[(4-methoxyphenyl)oxy]-pentanoyl]amino-3-(4-ethoxy)phenylpropanoylmethylamide]: 1 nM and 0.12 nM.
The matching figures for `CCOc1ccc(C[C@H](NC(=O)[C@H](CCCCOc2ccc(OC)cc2)CC(=O)NO)C(=O)NC)cc1` [Compound 53, (2S)-2-[(2R)-2-(2'-Hydroxyamino-2'-oxo-ethyl)-6-[(4-methoxyphenyl)oxy]-hexanoyl]amino-3-(4-ethoxy)phenylpropanoylmethylamide]: 3.2 nM and 0.32 nM.
Take `CNC(=O)[C@@H](NC(=O)[C@H](CCCOc1ccc(OC)cc1)CC(=O)NO)C(C)(C)C` [Compound 54, N-[(2R)-2-(2'-Hydroxyamino-2'-oxo-ethyl)-5-[(4-methoxyphenyl)oxy]-pentanoyl]-L-tert-leucine N-Methylamide]: the IC50 on MMP-2 (gelatinase A) is 5.6 nM; on MMP-9 (gelatinase B), 0.11 nM.
For `COc1ccc(OCCC[C@H](CC(=O)NO)C(=O)N[C@H](C(=O)NC(C)(C)C)C(C)(C)C)cc1` [Compound 55, N-[(2R)-2-(2'-Hydroxyamino-2'-oxo-ethyl)-5-[(4-methoxyphenyl)oxy]-pentanoyl]-L-tert-leucine N-tert-Butylamide] the same measures were 21 nM and 0.23 nM.
With `COc1ccc(OCCC[C@H](CC(=O)NO)C(=O)N[C@H](C(=O)NCCS(N)(=O)=O)C(C)(C)C)cc1` [Compound 56, 2-[N-[(2R)-2-(2'-Hydroxyamino-2'-oxo-ethyl)-5-[(4-methoxyphenyl)oxy]pentanoyl]-L-tert-leucyl]amino-ethanesulfonamide], the values for the IC50 against MMP-2 (gelatinase A) and on MMP-9 (gelatinase B) were 2.3 nM and 0.26 nM, respectively.
For `CNC(=O)[C@@H]1Cc2ccccc2CN1C(=O)[C@H](CCCOc1ccc(OC)cc1)CC(=O)NO` [Compound 57, N-[(2R)-2-(2'-Hydroxyamino-2'-oxo-ethyl)-5-[(4-methoxyphenyl)oxy]pentanoyl]-L-tetrahydroisoquinoline N-Methylamide] the same measures were 37 nM and 23 nM.
The matching figures for `CNC(=O)[C@H](Cc1ccccc1)NC(=O)[C@@H](CC(=O)NO)CC(C)(C)COC` [Compound 58, N-[(2R)-2-(2'-Hydroxyamino-2'-oxo-ethyl)-4,4-dimethyl-5-methoxy-pentanoyl]-L-phenylalanine N-Methylamide]: over 10000 nM and 2200 nM.
As for `CNC(=O)[C@H](Cc1ccc(OC)cc1)NC(=O)[C@@H](CC(=O)NO)CC(C)(C)COC` [Compound 59, (2S)-2-[(2R)-2-(2'-Hydroxyamino-2'-oxo-ethyl)-4,4-dimethyl-5-methoxy-pentanoyl]amino-3-(4-methoxy)phenylpropanoyl-methylamide], the IC50 on MMP-2 (gelatinase A) was 6800 nM; on MMP-9 (gelatinase B), 1500 nM.
Consider `CNC(=O)[C@@H](NC(=O)[C@@H](CC(=O)NO)CC(C)(C)COC)C(C)(C)C` [Compound 60, N-[(2R)-2-(2'-Hydroxyamino-2'-oxo-ethyl)-4,4-dimethyl-5-methoxy-pentanoyl]-L-tert-leucine N-Methylamide], for which the IC50 against MMP-2 (gelatinase A) is over 10000 nM; on MMP-9 (gelatinase B) it was 6800 nM.
As to `CNC(=O)[C@H](Cc1ccccc1)NC(=O)[C@H](CCCOc1ccc(OC)cc1)CC(=O)OCc1oc(=O)oc1C` [Compound 61], the IC50 is 1000 nM at MMP-2 (gelatinase A) and 110 nM against MMP-9 (gelatinase B).
Regarding `CCOc1ccc(OCCC[C@H](CC(=O)OCc2oc(=O)oc2C)C(=O)N[C@@H](Cc2ccccc2)C(=O)NC)cc1` [Compound 62], the IC50 on MMP-2 (gelatinase A) turned out to be 500 nM; against MMP-9 (gelatinase B), 120 nM.
The matching figures for `CNC(=O)[C@H](Cc1ccc(OC)cc1)NC(=O)[C@H](CCCOc1ccc(OC)cc1)CC(=O)OCc1oc(=O)oc1C` [Compound 63, (2S)-2-[(2R)-2-(2'-(5-Methyl-2-oxo-1,3-dioxolen-4-yl)-methylene-oxy-2'-oxo-ethyl]-5-[(4-methoxyphenyl)oxy]-pentanoyl]amino-3-(4-methoxy)phenylpropanoylmethylamide]: 1600 nM and 140 nM.
Consider `CNC(=O)[C@H](Cc1ccc(OC)cc1)NC(=O)[C@H](CCCCOc1ccc(OC)cc1)CC(=O)OCc1oc(=O)oc1C` [Compound 64, (2S)-2-[(2R)-2-(2'-(5-Methyl-2-oxo-1,3-dioxolen-4-yl)-methylene-oxy-2'-oxo-ethyl]-6-[(4-methoxyphenyl)oxy]-hexanoyl]amino-3-(4-methoxy)phenylpropanoylmethylamide], for which the IC50 against MMP-2 (gelatinase A) amounted to 2300 nM; against MMP-9 (gelatinase B) it was 980 nM.
